The compounds below were run on myeloid leukemia patient primary cells Pat.6 (assay: cell viability (% survival relative to DMSO control); higher = less cytotoxic). Conditions: 10000 nM; 72 h.
Method in brief: (§1)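 Thawed mononuclear cells from AML or CML patients were purified on Ficoll and cultured for 72 h in RPMI 1640 with 10% FBS, at 10,000 cells/well, on 384-well plates carrying 70 pre-printed compounds at 1–10,000 nM in five tenfold steps, in duplicate. Viability came from CellTiter-Glo, normalised against DMSO and against 10 μM proteasome inhibitor. Any area under the curve given was derived from log-logistic curve fits in the drc and PharmacoGx R packages, and these fits had four parameters.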
`O=C(/C=C/c1cccnc1)NCCCCC1CCN(C(=O)c2ccccc2)CC1` [Daporinad] gave a cell viability of 19.4%.
`Nc1ccn([C@@H]2O[C@H](CO)[C@@H](O)C2(F)F)c(=O)n1` [Gemcitabine] gave a cell viability of 81.8%.
In the case of `Clc1cc(Cl)c(OCC#CI)cc1Cl` [Haloprogin], the cell viability was less than 0%.
For `O=c1[nH]c(=O)n([C@H]2C[C@H](O)[C@@H](CO)O2)cc1I` [Idoxuridine], the cell viability was greater than 100%.

These compounds were tested on myeloid leukemia patient primary cells Pat.7 in the same assay as above. Conditions: 1 nM; 72 h.
Method in brief: as §1
Compound `O=C(Cc1cccc(OC(F)(F)F)c1)Nc1ccc(CCCCc2nnc(NC(=O)Cc3ccccn3)s2)nn1` [CB-839] has a cell viability of 58.6%.
With `O=C(/C=C/c1cccnc1)NCCCCC1CCN(C(=O)c2ccccc2)CC1` [Daporinad] the cell viability was 6.69%.
With `Nc1ccn([C@@H]2O[C@H](CO)[C@@H](O)C2(F)F)c(=O)n1` [Gemcitabine] the cell viability was 52.6%.
`Clc1cc(Cl)c(OCC#CI)cc1Cl` [Haloprogin] gave a cell viability of 72.1%.
Work on `O=c1[nH]c(=O)n([C@H]2C[C@H](O)[C@@H](CO)O2)cc1I` [Idoxuridine] yielded a cell viability of 77.4%.

Same assay, conditions: 10 nM; 72 h
Compound `O=C(Cc1cccc(OC(F)(F)F)c1)Nc1ccc(CCCCc2nnc(NC(=O)Cc3ccccn3)s2)nn1` [CB-839] has a cell viability of 74.7%.
Compound `O=C(/C=C/c1cccnc1)NCCCCC1CCN(C(=O)c2ccccc2)CC1` [Daporinad] has a cell viability of less than 0%.
For `Nc1ccn([C@@H]2O[C@H](CO)[C@@H](O)C2(F)F)c(=O)n1` [Gemcitabine], the cell viability was 3.48%.
`Clc1cc(Cl)c(OCC#CI)cc1Cl` [Haloprogin] was tested, and the cell viability was greater than 100%.
Compound `O=c1[nH]c(=O)n([C@H]2C[C@H](O)[C@@H](CO)O2)cc1I` [Idoxuridine] has a cell viability of 69.3%.

Same assay, conditions: 100 nM; 72 h
For `O=C(Cc1cccc(OC(F)(F)F)c1)Nc1ccc(CCCCc2nnc(NC(=O)Cc3ccccn3)s2)nn1` [CB-839], the cell viability was 6.64%.
For `O=C(/C=C/c1cccnc1)NCCCCC1CCN(C(=O)c2ccccc2)CC1` [Daporinad], the cell viability was less than 0%.
`Nc1ccn([C@@H]2O[C@H](CO)[C@@H](O)C2(F)F)c(=O)n1` [Gemcitabine] gave a cell viability of 95.9%.
`Clc1cc(Cl)c(OCC#CI)cc1Cl` [Haloprogin] showed a cell viability greater than 100%.
For `O=c1[nH]c(=O)n([C@H]2C[C@H](O)[C@@H](CO)O2)cc1I` [Idoxuridine], the cell viability was 83.4%.

Same assay, conditions: 1000 nM; 72 h
Work on `O=C(Cc1cccc(OC(F)(F)F)c1)Nc1ccc(CCCCc2nnc(NC(=O)Cc3ccccn3)s2)nn1` [CB-839] yielded a cell viability of 21.2%.
Work on `O=C(/C=C/c1cccnc1)NCCCCC1CCN(C(=O)c2ccccc2)CC1` [Daporinad] yielded a cell viability of less than 0%.
`Nc1ccn([C@@H]2O[C@H](CO)[C@@H](O)C2(F)F)c(=O)n1` [Gemcitabine] was tested, and the cell viability was 65%.
`Clc1cc(Cl)c(OCC#CI)cc1Cl` [Haloprogin] showed a cell viability of 3.48%.
`O=c1[nH]c(=O)n([C@H]2C[C@H](O)[C@@H](CO)O2)cc1I` [Idoxuridine] gave a cell viability of 63%.

Same assay, conditions: 10000 nM; 72 h
In the case of `O=C(Cc1cccc(OC(F)(F)F)c1)Nc1ccc(CCCCc2nnc(NC(=O)Cc3ccccn3)s2)nn1` [CB-839], the cell viability was 38.3%.
In the case of `O=C(/C=C/c1cccnc1)NCCCCC1CCN(C(=O)c2ccccc2)CC1` [Daporinad], the cell viability was less than 0%.
With `Nc1ccn([C@@H]2O[C@H](CO)[C@@H](O)C2(F)F)c(=O)n1` [Gemcitabine] the cell viability was 16.3%.
`Clc1cc(Cl)c(OCC#CI)cc1Cl` [Haloprogin] gave a cell viability of less than 0%.
In the case of `O=c1[nH]c(=O)n([C@H]2C[C@H](O)[C@@H](CO)O2)cc1I` [Idoxuridine], the cell viability was greater than 100%.

What follows are compounds tested on myeloid leukemia patient primary cells Pat.8 in the same assay as above. Conditions: 1 nM; 72 h.
Method in brief: as §1
Compound `O=C(Cc1cccc(OC(F)(F)F)c1)Nc1ccc(CCCCc2nnc(NC(=O)Cc3ccccn3)s2)nn1` [CB-839] has a cell viability of 82.7%.
With `O=C(/C=C/c1cccnc1)NCCCCC1CCN(C(=O)c2ccccc2)CC1` [Daporinad] the cell viability was 98.3%.
Work on `Nc1ccn([C@@H]2O[C@H](CO)[C@@H](O)C2(F)F)c(=O)n1` [Gemcitabine] yielded a cell viability of 76.5%.
Work on `Clc1cc(Cl)c(OCC#CI)cc1Cl` [Haloprogin] yielded a cell viability of 66.4%.
With `O=c1[nH]c(=O)n([C@H]2C[C@H](O)[C@@H](CO)O2)cc1I` [Idoxuridine] the cell viability was 96.3%.

Same assay, conditions: 10 nM; 72 h
`O=C(Cc1cccc(OC(F)(F)F)c1)Nc1ccc(CCCCc2nnc(NC(=O)Cc3ccccn3)s2)nn1` [CB-839] showed a cell viability of 86.7%.
Work on `O=C(/C=C/c1cccnc1)NCCCCC1CCN(C(=O)c2ccccc2)CC1` [Daporinad] yielded a cell viability of 11%.
In the case of `Nc1ccn([C@@H]2O[C@H](CO)[C@@H](O)C2(F)F)c(=O)n1` [Gemcitabine], the cell viability was 71.6%.
Work on `Clc1cc(Cl)c(OCC#CI)cc1Cl` [Haloprogin] yielded a cell viability greater than 100%.
For `O=c1[nH]c(=O)n([C@H]2C[C@H](O)[C@@H](CO)O2)cc1I` [Idoxuridine], the cell viability was greater than 100%.

Same assay, conditions: 100 nM; 72 h
Compound `O=C(Cc1cccc(OC(F)(F)F)c1)Nc1ccc(CCCCc2nnc(NC(=O)Cc3ccccn3)s2)nn1` [CB-839] has a cell viability of 76.8%.
With `O=C(/C=C/c1cccnc1)NCCCCC1CCN(C(=O)c2ccccc2)CC1` [Daporinad] the cell viability was 4.49%.
Compound `Nc1ccn([C@@H]2O[C@H](CO)[C@@H](O)C2(F)F)c(=O)n1` [Gemcitabine] has a cell viability of 91.5%.
With `Clc1cc(Cl)c(OCC#CI)cc1Cl` [Haloprogin] the cell viability was 81.4%.
`O=c1[nH]c(=O)n([C@H]2C[C@H](O)[C@@H](CO)O2)cc1I` [Idoxuridine] showed a cell viability of 76.2%.

Same assay, conditions: 1000 nM; 72 h
Work on `O=C(Cc1cccc(OC(F)(F)F)c1)Nc1ccc(CCCCc2nnc(NC(=O)Cc3ccccn3)s2)nn1` [CB-839] yielded a cell viability of 87.8%.
`O=C(/C=C/c1cccnc1)NCCCCC1CCN(C(=O)c2ccccc2)CC1` [Daporinad] was tested, and the cell viability was 10.4%.
With `Nc1ccn([C@@H]2O[C@H](CO)[C@@H](O)C2(F)F)c(=O)n1` [Gemcitabine] the cell viability was 85.4%.
Work on `Clc1cc(Cl)c(OCC#CI)cc1Cl` [Haloprogin] yielded a cell viability of 67.1%.
`O=c1[nH]c(=O)n([C@H]2C[C@H](O)[C@@H](CO)O2)cc1I` [Idoxuridine] was tested, and the cell viability was 68.1%.

Same assay, conditions: 10000 nM; 72 h
With `O=C(Cc1cccc(OC(F)(F)F)c1)Nc1ccc(CCCCc2nnc(NC(=O)Cc3ccccn3)s2)nn1` [CB-839] the cell viability was 81%.
Work on `O=C(/C=C/c1cccnc1)NCCCCC1CCN(C(=O)c2ccccc2)CC1` [Daporinad] yielded a cell viability of 0.503%.
Compound `Nc1ccn([C@@H]2O[C@H](CO)[C@@H](O)C2(F)F)c(=O)n1` [Gemcitabine] has a cell viability of 33.7%.
With `Clc1cc(Cl)c(OCC#CI)cc1Cl` [Haloprogin] the cell viability was 1.78%.
`O=c1[nH]c(=O)n([C@H]2C[C@H](O)[C@@H](CO)O2)cc1I` [Idoxuridine] was tested, and the cell viability was 93.1%.

These compounds were tested on myeloid leukemia patient primary cells Pat.9 in the same assay as above. Conditions: 1 nM; 72 h.
Method in brief: as §1
With `O=C(Cc1cccc(OC(F)(F)F)c1)Nc1ccc(CCCCc2nnc(NC(=O)Cc3ccccn3)s2)nn1` [CB-839] the cell viability was 62.2%.
`O=C(/C=C/c1cccnc1)NCCCCC1CCN(C(=O)c2ccccc2)CC1` [Daporinad] gave a cell viability of 0.773%.
`Nc1ccn([C@@H]2O[C@H](CO)[C@@H](O)C2(F)F)c(=O)n1` [Gemcitabine] was tested, and the cell viability was 3.95%.
`Clc1cc(Cl)c(OCC#CI)cc1Cl` [Haloprogin] showed a cell viability of 80.9%.
`O=c1[nH]c(=O)n([C@H]2C[C@H](O)[C@@H](CO)O2)cc1I` [Idoxuridine] was tested, and the cell viability was 34.8%.

Same assay, conditions: 10 nM; 72 h
`O=C(Cc1cccc(OC(F)(F)F)c1)Nc1ccc(CCCCc2nnc(NC(=O)Cc3ccccn3)s2)nn1` [CB-839] was tested, and the cell viability was 35.3%.

Source: the supplement of paper PMC8671470
